Source: patent US20180221352A1, “3-(1H-PYRROLO[2,3-C]PYRIDIN-2-YL)-1H-PYRAZOLO[3,4-B]PYRIDINES AND THERAPEUTIC USES THEREOF” (Samumed, LLC, priority 2015, published 2018)

How the values were obtained:
Type in all cases: cell-based
[1] = system: Wnt activity (Sp5-Luc reporter, SW480 colon carcinoma cells); assay: Wnt activity screening assay, Sp5-Luc reporter gene in SW480 cells; details: Homo sapiens; for inhibition at 10 µM: SW480, read-out: percent inhibition at 10 μM; for EC50: Sp5-Luc reporter, SW480 cells, overnight incubation
Procedure, shortened: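 SW480 cells stably carrying a luciferase reporter driven by an Sp5 promoter with eight TCF/LEF sites, plated overnight in 1% FBS medium at 37 °C. Luminescence read with BrightGlo. Signals normalized to DMSO-treated cells; EC50 from four-parameter variable-slope fit.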

SW480 colon cancer cells = assay: Cell viability assay (CellTiter-Blue); details: Homo sapiens; for EC50: 96 h, SW480 cell viability, four days; for inhibition at 10 µM: SW480, 96 h, read-out: percent inhibition at 10 μM
Procedure, shortened: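 Fluorescence from resazurin reduced to resorufin by metabolically active cells was the read-out, taken after ~3 h with CellTiter-Blue.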

[2] = system: primary human fibroblasts derived from IPF patients (LL29 cells); assay: Inhibition of fibrotic process, αSMA staining in TGF-β1 treated fibroblasts; details: Fibroblast; for EC50: 96 h, LL29 cells, TGF-β1 20 ng/mL, 4 days, % αSMA positive cells; for inhibition at 10 µM: read-out: percent inhibition at 10 μM
Procedure, shortened: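 LL29 fibroblasts plated in F12 with 1% FBS were stimulated with TGF-β1 alongside compound, with TGF-β1 plus DMSO wells as controls. After 4 days of incubation, SYTOX green was added at 1 μM final for 30 min at room temperature.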

[3] = system: primary human mesenchymal stem cells (hMSCs); assay: Induction of chondrogenesis in hMSCs (nodule count); details: 6 days; for EC50: concentration required to induce 50% levels of chondrogenesis vs TGF-β3, read-out: Conc (nM) of 50% TGF-β3 activity; for Emax: relative to TGF-β3 (10 ng/mL) positive control, read-out: Max. Activity as % TGF-β3 activity
From the text: Representative compounds were screened using primary human mesenchymal stem cells (hMSCs) to determine their ability to induce chondrogenesis (process by which cartilage is developed).
Primary human mesenchymal stem cells (hMSCs) were purchased from Lonza (Walkersville, Md.) and expanded in Mesenchymal Stem Cell Growth Media (Lonza). Cells between passage 3 and 6 were used for the experiments.
To image chondrogenic nodules, the cells were fixed using 4% formaldehyde (Electron Microscopy Sciences), and stained with 2 μg/mL Rhodamine B (Sigma-Aldrich) and 20 μM Nile Red (Sigma-Aldrich) [Johnson K., et. al, A Stem Cell-Based Approach to Cartilage Repair, Science, (2012). […] Number of nodules in each well was normalized to the average of 3 DMSO treated wells on the same plate using Excel (Microsoft Inc.). The normalized averages (fold change over DMSO) of 3 replicate wells for each compound concentration were calculated. Due to solubility limitations of some of the compounds, curve fitting was incomplete leading to inaccurate EC50 determinations.
Using TGF-β3 as a positive control, the concentration of representative compounds required to induce 50% levels of chondrogenesis is reported. In addition, the maximum activity of each compound and the respective dose that each compound reached maximum chondrogenesis activity is reported.

IL-6 = IL-6 inhibition in LPS-stimulated THP-1 cells (HTRF); details: Homo sapiens; for inhibition at 10 µM: THP-1, read-out: percent inhibition at 10 μM; for EC50: THP-1 cells, LPS 500 ng/mL, 22 hours, IL6 HTRF
Procedure, shortened: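 Serum-reduced (1% FBS, 24 h) THP-1 cells, 5000/well, exposed to compound 2 h at 37 °C, then stimulated with 500 ng/mL LPS for 22 h. Secreted IL-6 measured by HTRF (665/620 ratio), normalised to DMSO; EC50 by four-parameter fit, duplicates.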

Structure (SMILES) | EC50 [1] [µM] | EC50 (SW480 colon cancer cells) [µM] | EC50 [3] [nM] | EC50 (IL-6) [µM] | inhibition at 10 µM [1] [%] | inhibition at 10 µM (SW480 colon cancer cells) [%] | EC50 [2] [µM] | inhibition at 10 µM [2] [%] | Emax [3] [%] | inhibition at 10 µM (IL-6) [%]
O=C(Nc1cncc(-c2cnc3[nH]nc(-c4cc5c(-c6cccnc6)cncc5[nH]4)c3c2)c1)c1ccccc1 [Compound 95, N-(5-(3-(4-(Pyridin-3-yl)-1H-pyrrolo[2,3-c]pyridin-2-yl)-1H-pyrazolo[3,4-b]pyridin-5-yl)pyridin-3-yl)benzamide] | > 10 | > 10 | 100 | > 10 | 0 | 8.7 | > 10 | 0 | 155 | 46.5
CN(C)c1cncc(-c2cnc3[nH]nc(-c4cc5c(-c6ccncc6)cncc5[nH]4)c3c2)c1 [Compound 119, N,N-Dimethyl-5-(3-(4-(pyridin-4-yl)-1H-pyrrolo[2,3-c]pyridin-2-yl)-1H-pyrazolo[3,4-b]pyridin-5-yl)pyridin-3-amine] | > 10 | > 10 | 10 | > 10 | 2.5 | 8.9 | > 10 | 0 | 191 | 40.7
CC(C)(C)C(=O)Nc1cncc(-c2cnc3[nH]nc(-c4cc5c(-c6ccncc6)cncc5[nH]4)c3c2)c1 [Compound 120, N-(5-(3-(4-(Pyridin-4-yl)-1H-pyrrolo[2,3-c]pyridin-2-yl)-1H-pyrazolo[3,4-b]pyridin-5-yl)pyridin-3-yl)pivalamide] | > 10 | > 10 |  | 0.196 | 5 | 13.5 | 2.72 |  | 34 | 
CCCCC(=O)Nc1cncc(-c2cnc3[nH]nc(-c4cc5c(-c6ccncc6)cncc5[nH]4)c3c2)c1 [Compound 131, N-(5-(3-(4-(Pyridin-4-yl)-1H-pyrrolo[2,3-c]pyridin-2-yl)-1H-pyrazolo[3,4-b]pyridin-5-yl)pyridin-3-yl)pentanamide] | > 10 | > 10 | 10 | > 10 | 3.4 | 18.9 | > 10 | 27.9 | 70 | 24.5
O=C(Nc1cncc(-c2cnc3[nH]nc(-c4cc5c(-c6ccncc6)cncc5[nH]4)c3c2)c1)C1CCC1 [Compound 133, N-(5-(3-(4-(Pyridin-4-yl)-1H-pyrrolo[2,3-c]pyridin-2-yl)-1H-pyrazolo[3,4-b]pyridin-5-yl)pyridin-3-yl)cyclobutanecarboxamide] | > 10 | > 10 |  | > 10 | 7 | 18.9 | 4.92 |  | 43 | 43.3
FC1(F)CCN(Cc2cncc(-c3cnc4[nH]nc(-c5cc6c(-c7ccncc7)cncc6[nH]5)c4c3)c2)C1 [Compound 138, 5-(5-((3,3-Difluoropyrrolidin-1-yl)methyl)pyridin-3-yl)-3-(4-(pyridin-4-yl)-1H-pyrrolo[2,3-c]pyridin-2-yl)-1H-pyrazolo[3,4-b]pyridine] | > 10 | > 10 |  | 0.486 | 40.8 | 24.1 | 0.875 |  | 37 | 
CC(C)CC(=O)Nc1cncc(-c2cnc3[nH]nc(-c4cc5c(-c6cc(F)cc(CNS(C)(=O)=O)c6)cncc5[nH]4)c3c2)c1 [Compound 478, N-(5-(3-(4-(3-Fluoro-5-(methylsulfonamidomethyl)phenyl)-1H-pyrrolo[2,3-c]pyridin-2-yl)-1H-pyrazolo[3,4-b]pyridin-5-yl)pyridin-3-yl)-3-methylbutanamide] | 2.55 | 7.2 |  | 1.17 |  |  | > 10 | 21.2 | 46 | 
CS(=O)(=O)NCc1cc(F)cc(-c2cncc3[nH]c(-c4n[nH]c5ncc(-c6cccnc6)cc45)cc23)c1 [Compound 480, N-(3-Fluoro-5-(2-(5-(pyridin-3-yl)-1H-pyrazolo[3,4-b]pyridin-3-yl)-1H-pyrrolo [2,3-c]pyridin-4-yl)benzyl)methane sulfonamide] | 1.46 | 3.65 | 2700 | 0.237 |  |  | 2.24 |  | 66 | 
CCNCc1cncc(-c2cnc3[nH]nc(-c4cc5c(-c6cc(F)cc(CNS(C)(=O)=O)c6)cncc5[nH]4)c3c2)c1 [Compound 482, N-(3-(2-(5-(5-((Ethylamino)methyl)pyridin-3-yl)-1H-pyrazolo[3,4-b]pyridin-3-yl)-1H-pyrrolo[2,3-c]pyridin-4-yl)-5-fluorobenzyl)methanesulfonamide] | > 10 | > 10 |  | > 10 | 12.8 | 7 | 5.03 |  | 43 | 47.9

Continued, in another order:

EC50 [1] [µM] | EC50 (SW480 colon cancer cells) [µM] | EC50 [3] [nM] | EC50 (IL-6) [µM] | Structure (SMILES) | inhibition at 10 µM [1] [%] | inhibition at 10 µM (SW480 colon cancer cells) [%] | EC50 [2] [µM] | inhibition at 10 µM [2] [%] | Emax [3] [%] | inhibition at 10 µM (IL-6) [%]
> 10 | > 10 |  | 0.647 | CC(C)(C)CC(=O)Nc1cncc(-c2cnc3[nH]nc(-c4cc5c(-c6cccnc6)cncc5[nH]4)c3c2)c1 [Compound 100, 3,3-Dimethyl-N-(5-(3-(4-(pyridin-3-yl)-1H-pyrrolo[2,3-c]pyridin-2-yl)-1H-pyrazolo[3,4-b]pyridin-5-yl)pyridin-3-yl)butanamide] | 17.3 | 18.4 | 1.91 |  | 37 | 
> 10 | > 10 |  | 6.59 | c1cncc(-c2cncc3[nH]c(-c4n[nH]c5ncc(-c6cncnc6)cc45)cc23)c1 [Compound 111, 3-(4-(Pyridin-3-yl)-1H-pyrrolo[2,3-c]pyridin-2-yl)-5-(pyrimidin-5-yl)-1H-pyrazolo[3,4-b]pyridine] | 11.9 | 8.6 | 1.72 |  | 24 | 
> 10 | > 10 |  | 0.412 | Nc1cncc(-c2cnc3[nH]nc(-c4cc5c(-c6ccncc6)cncc5[nH]4)c3c2)c1 [Compound 115, 5-(3-(4-(Pyridin-4-yl)-1H-pyrrolo[2,3-c]pyridin-2-yl)-1H-pyrazolo[3,4-b]pyridin-5-yl)pyridin-3-amine] | 13.9 | 17.8 | 3.55 |  | 32 | 
4.88 | 3.69 |  | > 10 | c1cc2cc(-c3n[nH]c4ncc(-c5cncc(CN6CCCC6)c5)cc34)[nH]c2cn1 [Compound 266, 5-(5-(Pyrrolidin-1-ylmethyl)pyridin-3-yl)-3-(1H-pyrrolo[2,3-c]pyridin-2-yl)-1H-pyrazolo[3,4-b]pyridine] |  |  | > 10 | 12.9 | 36 | 47.6
3.58 | 3.43 | 2700 | 0.395 | O=C(Nc1cncc(-c2cnc3[nH]nc(-c4cc5ccncc5[nH]4)c3c2)c1)C1CCCCC1 [Compound 275, N-(5-(3-(1H-Pyrrolo[2,3-c]pyridin-2-yl)-1H-pyrazolo[3,4-b]pyridin-5-yl)pyridin-3-yl)cyclohexanecarboxamide] |  |  | 1.7 |  | 291 | 
> 10 | > 10 | 30 | 0.027 | CC(C)C(=O)Nc1cncc(-c2cnc3[nH]nc(-c4cc5c(-c6cc(F)cc(CNS(C)(=O)=O)c6)cncc5[nH]4)c3c2)c1 [Compound 485, N-(5-(3-(4-(3-Fluoro-5-(methylsulfonamidomethyl)phenyl)-1H-pyrrolo[2,3-c]pyridin-2-yl)-1H-pyrazolo[3,4-b]pyridin-5-yl)pyridin-3-yl)isobutyramide] | 49.8 | 14 | > 10 | 0 | 60 | 
